Test results taken from patent US8680152B2, “Cathepsin inhibitors for the treatment of bone cancer and bone cancer pain” (Virobay, Inc., priority 2011, dated 2014).
Read-outs that look alike come from different tables or passages of the source.

Columns and labels:
[1] = test system: human osteoclasts; test: Inhibition of bone resorption in vitro (human osteoclasts on bovine bone slices); assay type: cell-based; conditions: CTX/TRACP5b, FIG. 7
Method: FIG. 7. Inhibition of Bone Resorption In Vitro. […] Compounds of the present invention were added to cultured human differentiated bone marrow-derived osteoclasts cultured on bovine bone slices allowing them to resorb bone. Tartrate-resistant acid phosphatase 5b activity (TRACP 5b) was measured in the culture medium as an index of the number of osteoclasts formed in each well, and C-terminal cross-linked telopeptides of type 1 collagen (CTX) was measured in the culture medium to quantitate bone resorption. […] The irreversible protease inhibitor E64 as well as the reversible specific cathepsin K protease inhibitor odanacatib were included as assay controls.
Compound A was assessed in an in vitro assay for its efficacy in blocking resorption activity of human osteoclasts in vitro. Bone marrow-derived human osteoclast precursor cells were cultured on bovine bone slices for 7 days in conditions that allowed osteoclast differentiation, and allowing them to differentiate into bone-resorbing osteoclasts. After completion of osteoclast differentiation at day 7, the culture medium was removed and new culture medium for assessing osteoclast activity was added. Test compounds including Compound A was added to the cultures at this stage on day 7. Cultures were then allowed to continue for an additional 3 days allowing them to resorb bone. Concentrations of Compound assessed were 1, 3, 10, 30, 100, 300, and 1000 nM in 8 replicates. Tartrate-resistant acid phosphatase 5b activity (TRACP 5b) was measured from the culture medium collected on day 7 indicating the number of mature osteoclasts formed in each well before adding compounds. C-terminal cross-linked telopeptides of type 1 collagen (CTX) were measured form the culture medium collected at day 10 to quantitate bone resorption during days 7-10. […] The study was performed in […] with each containing a baseline group including vehicle, a control group with a reference compound E64, and 7 concentrations of the test compound to determine an EC50 for inhibition of resorption activity.

[2] = target: cathepsin B (Homo sapiens, UniProt P07858); test: Cathepsin B assay; assay type: biochemical
Method: (§1) Solutions of test compounds in varying concentrations were prepared in 101 μL of dimethyl sulfoxide (DMSO) and then diluted into assay buffer (40 μL, comprising: N,N-bis(2-hydroxyethyl)-2-aminoethanesulfonic acid (BES), 50 mM (pH 6); polyoxyethylenesorbitan monolaurate, 0.05%; and dithiothreitol (DTT), 2.5 mM). Human cathepsin B (0.025 pMoles in 25 μL of assay buffer) was added to the dilutions. The assay solutions were mixed for 5-10 seconds on a shaker plate, covered and incubated for 30 min at room temperature. Z-FR-AMC (20 nMoles in 25 μL of assay buffer) was added to the assay solutions and hydrolysis was followed spectrophotometrically at (λ 460 nm) for 5 min. Apparent inhibition constants (Ki) were calculated from the enzyme progress curves using standard mathematical models.

[3] = target: Human Cathepsin V (Homo sapiens, UniProt O60911); test: Cathepsin V assay; assay type: biochemical; conditions: for inhibition at 0.1 µM: single data point of 100 nM
Method: The assays were performed similarly to those described above. Human Cathepsin V: The buffer used to assay this enzyme consisted of: 50 mM MES (pH 6.5), 2.5 mM DTT, 2.5 mM EDTA, 100 mM NaCl, 0.01% BSA and 10% DMSO. Recombinant human cathepsin V was supplied at 2.0 nM. Substrate, Z-Phe-Arg-AMC, was supplied at 25 μM. Apparent inhibition constants (Ki) were calculated from the enzyme progress curves using standard mathematical models.

[4] = target: cathepsin L (Homo sapiens, UniProt P07711); test: Cathepsin L assay; assay type: biochemical; conditions: for inhibition at 0.1 µM: single data point of 100 nM
Method: as §1, with “10” for “101”, “MES,” for “N,N-bis(2-hydroxyethyl)-2-aminoethanesulfonic acid (BES),”, “5.5); EDTA, 2.5 mM;” for “6); polyoxyethylenesorbitan monolaurate, 0.05%;”, “DTT,” for “dithiothreitol (DTT),”, “L (0.05” for “B (0.025”, “Z-Phe-Arg-AMC (1” for “Z-FR-AMC (20”

[5] = test system: multiple human cathepsin enzymes; test: Cathepsin inhibitory profile on multiple cathepsin enzymes; assay type: biochemical
Excerpt: FIG. 1. […] Methods are similar to those set forth in the Biological Examples.

[6] = target: Human cathepsin S (Homo sapiens, UniProt P25774); test: Cathepsin S assay; assay type: biochemical
Method: (§2) Solutions of test compounds in varying concentrations were prepared in 10 μL of dimethyl sulfoxide (DMSO) and then diluted into assay buffer (40 μL, comprising: MES, 50 mM (pH 6.5); EDTA, 2.5 mM; and NaCl, 100 mM); β-mercaptoethanol, 2.5 mM; and BSA, 0.00%. Human cathepsin S (0.05 pMoles in 25 μL of assay buffer) was added to the dilutions. The assay solutions were mixed for 5-10 seconds on a shaker plate, covered and incubated for 30 min at room temperature. Z-Val-Val-Arg-AMC (4 nMoles in 25 μL of assay buffer containing 10% DMSO) was added to the assay solutions and hydrolysis was followed spectrophotometrically (at λ 460 nm) for 5 min. Apparent inhibition constants (Ki) were calculated from the enzyme progress curves using standard mathematical models.

[7] = target: T1, Cathepsin K (huRab), humanized rabbit cathepsin K enzyme (Oryctolagus cuniculus, UniProt P43236); test: Cathepsin K (huRab) assay; assay type: biochemical
T1 sequence (P43236 1-329 Y175D/V274L): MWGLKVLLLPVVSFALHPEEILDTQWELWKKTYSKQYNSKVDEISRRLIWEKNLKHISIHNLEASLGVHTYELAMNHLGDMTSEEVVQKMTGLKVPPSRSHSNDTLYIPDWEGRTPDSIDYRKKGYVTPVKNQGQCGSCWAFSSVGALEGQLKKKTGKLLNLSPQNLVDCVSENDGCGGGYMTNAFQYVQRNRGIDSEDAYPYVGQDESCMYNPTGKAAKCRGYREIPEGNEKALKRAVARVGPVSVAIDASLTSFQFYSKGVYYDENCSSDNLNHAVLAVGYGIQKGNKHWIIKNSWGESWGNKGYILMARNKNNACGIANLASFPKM
Method: FIG. 5. Cathepsin inhibitory profiles for Compound A, Compound B, and Compound C. All human enzymes with the exception of CatK HuRab. This is a humanized rabbit cathepsin K enzyme where the key amino acids in the active site of rabbit cathepsin K have been converted to match the amino acids found in the active site of human cathepsin K. The remainder of the enzyme is rabbit. Methods are as set forth in the Examples.
Solutions of test compounds in varying concentrations were prepared in 10 μL of dimethyl sulfoxide (DMSO) and then diluted into assay buffer (40 μL, comprising: MES, 50 mM (pH 5.5); EDTA, 2.5 mM; and DTT, 2.5 mM). Human cathepsin K (0.0906 pMoles in 25 μL of assay buffer) was added to the dilutions. The assay solutions were mixed for 5-10 seconds on a shaker plate, covered and incubated for 30 min at room temperature. Z-Phe-Arg-AMC (4 nMoles in 25 μL of assay buffer) was added to the assay solutions and hydrolysis was followed spectrophotometrically at (λ 460 nm) for 5 min. Apparent inhibition constants (Ki) were calculated from the enzyme progress curves using standard mathematical models.

[8] = target: T2, Human cathepsin F (Homo sapiens, UniProt Q9UBX1); test: Cathepsin F assay; assay type: biochemical
T2 sequence (Q9UBX1 271-484): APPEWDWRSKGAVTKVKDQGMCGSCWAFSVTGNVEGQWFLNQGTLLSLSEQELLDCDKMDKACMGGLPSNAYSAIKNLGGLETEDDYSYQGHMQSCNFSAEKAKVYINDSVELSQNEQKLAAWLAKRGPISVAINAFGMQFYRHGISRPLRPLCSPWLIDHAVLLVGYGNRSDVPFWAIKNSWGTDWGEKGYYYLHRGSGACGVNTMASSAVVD
Method: as §2, with “DTT,” for “β-mercaptoethanol,”, “0.01%.” for “0.00%.”, “F (0.1” for “S (0.05”, “Z-Phe-Arg-AMC (2” for “Z-Val-Val-Arg-AMC (4”, “Apparent inhibition constants (Ki) were calculated from the enzyme progress curves using standard mathematical models.” left out

[9] = tested at one concentration, 100 nM

cathepsin L, sequence (P07711 114-333): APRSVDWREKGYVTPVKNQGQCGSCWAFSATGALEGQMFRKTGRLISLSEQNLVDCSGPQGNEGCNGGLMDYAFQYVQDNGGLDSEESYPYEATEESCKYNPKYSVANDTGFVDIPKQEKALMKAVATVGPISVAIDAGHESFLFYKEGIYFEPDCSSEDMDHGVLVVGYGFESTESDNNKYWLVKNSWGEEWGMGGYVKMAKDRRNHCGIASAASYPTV
Human Cathepsin V, sequence (O60911 114-334): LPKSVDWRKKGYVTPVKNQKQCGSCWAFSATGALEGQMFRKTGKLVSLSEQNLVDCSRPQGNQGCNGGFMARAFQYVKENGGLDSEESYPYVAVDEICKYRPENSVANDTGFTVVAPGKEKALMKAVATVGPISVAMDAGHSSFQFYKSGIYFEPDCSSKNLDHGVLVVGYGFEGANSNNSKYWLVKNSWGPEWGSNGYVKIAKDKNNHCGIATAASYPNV
Human cathepsin S, sequence (P25774 115-331): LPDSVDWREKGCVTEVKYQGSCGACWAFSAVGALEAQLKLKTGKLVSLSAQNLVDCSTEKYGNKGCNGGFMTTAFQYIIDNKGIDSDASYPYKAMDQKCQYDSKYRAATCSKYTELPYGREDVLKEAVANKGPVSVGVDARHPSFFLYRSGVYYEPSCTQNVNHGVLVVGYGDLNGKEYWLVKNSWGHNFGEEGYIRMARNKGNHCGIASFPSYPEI

IC50 [2] [nM]	inhibition at 0.1 µM [3] [%]	IC50 [3, 9] [nM]	inhibition at 0.1 µM [4] [%]	IC50 [4, 9] [nM]	IC50 [6] [nM]	inhibition at 0.1 µM ([2]; one concentration, 100 nM) [%]	IC50 [3] [nM]	IC50 [7] [nM]	IC50 [4] [nM]	IC50 [8] [nM]	melting point [°C]	SMILES	inhibition of bone resorption in vitro [1]	cathepsin inhibitory profile on multiple cathepsin enzymes [5]
–	–	–	–	–	–	–	–	–	–	–	–	CC[C@H](NC(=O)[C@H](CS(=O)(=O)c1cccc(S(C)(=O)=O)c1)N[C@@H](c1ccc(F)cc1)C(F)(F)F)C(=O)C(=O)NC1CC1 [Compound B, (S)—N-Cyclopropyl-3-((R)-3-((3-(methylsulfonyl)phenyl)sulfonyl)-2-(((S)-2,2,2-trifluoro-1-(4-fluorophenyl)ethyl)amino)propanamido)-2-oxopentanamide]	inhibit bone resorption in vitro, with similar potency to Compound A	–
23	63	< 100	75	< 100	0.267	–	–	–	–	–	–	CC[C@H](NC(=O)[C@H](CC(F)(F)CC1CC1)NCC(F)(F)Oc1ccc(F)cc1)C(=O)C(=O)NC1CC1 [Compound D, (S)-5-cyclopropyl-N-((S)-1-(cyclopropylamino)-1,2-dioxopentan-3-yl)-2-(2,2-difluoro-2-(4-fluorophenoxy)ethylamino)-4,4-difluoropentanamide]	inhibit bone resorption in vitro, with similar potency to Compound A	very favorable cathepsin inhibitory profile
< 100	≥ 98	< 100	≥ 98	< 100	0.332	≥ 98	–	–	–	–	–	CC[C@H](NC(=O)[C@H](CC(F)(F)CC1CC1)N[C@@H](c1ccc(F)cc1)C(F)(F)F)C(=O)C(=O)NC1CC1 [Compound E, (S)-5-cyclopropyl-N—((S)-1-(cyclopropylamino)-1,2-dioxopentan-3-yl)-4,4-difluoro-2-(((S)-2,2,2-trifluoro-1-(4-fluorophenyl)ethyl)amino)pentanamide]	inhibit bone resorption in vitro, with similar potency to Compound A	–
2.5	–	–	–	–	0.34	–	< 0.25	28	0.3	74	–	CC[C@H](NC(=O)[C@H](CS(=O)(=O)Cc1cccnc1)N[C@@H](c1ccc(F)cc1)C(F)(F)F)C(=O)C(=O)NC1CC1 [Compound F, (S)—N-cyclopropyl-2-oxo-3-((R)-3-((pyridin-3-ylmethyl)sulfonyl)-2-(((S)-2,2,2-trifluoro-1-(4-fluorophenyl)ethyl)amino)propanamido)pentanamide]	inhibit bone resorption in vitro, with similar potency to Compound A	–
–	–	–	–	–	–	–	–	–	–	–	152.5 to 153.5	CC[C@H](NC(=O)[C@H](CCS(C)(=O)=O)N[C@@H](c1ccc(F)cc1)C(F)(F)F)C(=O)C(=O)NC1CC1 [Example 1, N-cyclopropyl-3S-{4-methanesulfonyl-2S-[2,2,2-trifluoro-1S-(4-fluoro-phenyl)-ethylamino]-butyrylamino}-2-oxo-pentanamide]	–	–
